Results published in patent US11492374B2 (priority 2020, dated 2022).

What was measured:
[1] = target: recombinant human kappa opioid receptor (KOR) (Homo sapiens (Human), UniProt P41145); type: binding
[2] = target: recombinant human mu opioid receptor (MOR) (Homo sapiens (Human), UniProt P35372); assay: Opioid receptor radioligand binding assay, MOR ([3H]DAMGO); conditions: membranes of HEK293 cells expressing recombinant human MOR; 0.5 nM [3H]DAMGO

Which results are given for `CC(C)C[C@@H](NC(=O)[C@@H](Cc1ccccc1)NC(=O)[C@H](N)[C@H](C)c1ccccc1)C(=O)N[C@H](CCCCN)C(=O)N1CCC(N)(C(=O)O)CC1` [Compound 18]?
IC50 [1]: 0.000253 µM; δ/k [1]: >39603; μ/k [1]: 38855; IC50 [2]: 9.81 µM
